Activity calls are given as the source filed them. The rule behind the calls is not given here.

Data set [1] addresses Tyrosine-protein kinase Fgr (Homo sapiens) (UniProt P09769). The data set is described as follows: Inhibition of human FGR at 0.1 uM relative to control.
In data set [2] the target is Tyrosine-protein kinase Blk (Homo sapiens) (UniProt P51451). The data set is described as follows: Inhibition of human BLK at 0.1 uM relative to control.
Data set [3] concerns Proto-oncogene tyrosine-protein kinase receptor Ret (Homo sapiens), P07949 [Y791F]. The data set is described as follows: Inhibition of human RET Y791F mutant at 0.1 uM relative to control.
Data set [4] has as its target RAC-alpha serine/threonine-protein kinase (Homo sapiens) (UniProt P31749). The data set is described as follows: Inhibition of human AKT1 at 0.1 uM relative to control.
The test system of data set [5] is Mus musculus. Kind of data set: Antitumor activity against human MOLM13 cells xenografted in SCID mouse assessed as increase in survival at 25 mg/kg, po qd administered on day 8 to 12 relative to vehicle-treated control. In kind it is functional, MOLM-13. A general note: Xenograft models place foreign cells or tissue in a host animal.
Data set [6] addresses Tyrosine-protein kinase Fyn (Homo sapiens) (UniProt P06241). The data set is described as follows: Inhibition of human FYN at 0.1 uM relative to control.
In data set [7] the target is Platelet-derived growth factor receptor alpha (Homo sapiens) (UniProt P16234). The data set is described as follows: Inhibition of human PDGFRalpha at 0.1 uM relative to control.
Data set [8] addresses Mitogen-activated protein kinase 8 (Homo sapiens) (UniProt P45983). Kind of data set: Inhibition of human MAPK8 at 0.1 uM relative to control.
Data set [9] addresses Tyrosine-protein kinase HCK (Homo sapiens) (UniProt P08631). The data set is described as follows: Inhibition of human HCK at 0.1 uM relative to control.
Data set [10] deals with Ribosomal protein S6 kinase alpha-2 (Homo sapiens) (UniProt Q15349). Kind of data set: Inhibition of human RSK3 at 0.1 uM relative to control.
Ribosomal protein S6 kinase alpha-2 (Homo sapiens), sequence (Q15349 whole entry): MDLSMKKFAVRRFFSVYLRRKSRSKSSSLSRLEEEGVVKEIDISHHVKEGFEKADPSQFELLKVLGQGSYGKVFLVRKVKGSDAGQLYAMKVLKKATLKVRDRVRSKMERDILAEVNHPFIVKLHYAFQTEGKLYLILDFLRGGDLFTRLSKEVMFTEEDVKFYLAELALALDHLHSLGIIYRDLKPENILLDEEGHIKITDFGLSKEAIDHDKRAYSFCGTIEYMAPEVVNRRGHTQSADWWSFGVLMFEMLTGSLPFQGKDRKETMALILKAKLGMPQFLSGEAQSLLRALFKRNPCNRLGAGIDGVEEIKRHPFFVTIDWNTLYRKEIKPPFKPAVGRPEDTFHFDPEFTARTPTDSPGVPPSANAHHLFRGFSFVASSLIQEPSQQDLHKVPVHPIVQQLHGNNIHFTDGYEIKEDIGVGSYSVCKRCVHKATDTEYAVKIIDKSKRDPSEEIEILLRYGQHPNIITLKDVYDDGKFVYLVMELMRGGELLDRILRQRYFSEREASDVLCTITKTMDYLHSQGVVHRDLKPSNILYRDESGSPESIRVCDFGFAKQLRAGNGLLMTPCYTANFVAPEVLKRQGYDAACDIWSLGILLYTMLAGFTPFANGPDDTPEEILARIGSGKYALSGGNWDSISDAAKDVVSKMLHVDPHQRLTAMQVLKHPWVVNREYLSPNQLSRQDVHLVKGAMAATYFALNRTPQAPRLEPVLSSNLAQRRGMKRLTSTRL
Data set [11] relates to MV4-11. The data set is described as follows: Antitumor activity against human MV4-11 cells xenografted in nude mouse assessed as tumor growth inhibition at 10 mg/kg, po qd administered on day 1 to 5 measured during compound dosing. In kind it is functional, organism-based.
Data set [12] has as its target Platelet-derived growth factor receptor beta (Homo sapiens) (UniProt P09619). The data set is described as follows: Inhibition of human PDGFRbeta at 0.1 uM relative to control.
Data set [13] relates to MV4-11. The data set is described as follows: Antitumor activity against human MV4-11 cells xenografted in nude mouse assessed as tumor regression at 25 mg/kg, po qd administered on day 8 to 12 measured during 48 days post last dose. Type of data set: functional, organism-based.
The target in data set [14] is Aurora kinase C (Homo sapiens) (UniProt Q9UQB9). Kind of data set: Inhibition of human AURKC at 0.1 uM relative to control.
Aurora kinase C (Homo sapiens), sequence (Q9UQB9 whole entry): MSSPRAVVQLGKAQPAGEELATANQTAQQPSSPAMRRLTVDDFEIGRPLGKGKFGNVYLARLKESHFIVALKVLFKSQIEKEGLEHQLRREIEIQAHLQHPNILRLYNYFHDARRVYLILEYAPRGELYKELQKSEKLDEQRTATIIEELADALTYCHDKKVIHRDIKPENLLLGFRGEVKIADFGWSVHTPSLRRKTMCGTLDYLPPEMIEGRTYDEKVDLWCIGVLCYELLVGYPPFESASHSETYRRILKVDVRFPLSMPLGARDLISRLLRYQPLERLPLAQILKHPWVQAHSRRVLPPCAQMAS
For data set [15], the target named is Angiopoietin-1 receptor (Homo sapiens) (UniProt Q02763). Kind of data set: Inhibition of human TEK at 0.1 uM relative to control.
A short description of data set [16]: AUC (0 to infinity) in Sprague-Dawley rat at 10 mg/kg, po. Type of data set: ADME, organism-based. On the set-up: dose 10 mg/kg, time infinity, route oral. The following applies: in vivo.
Data set [17] has as its system MV4-11. The data set is described as follows: Antitumor activity against human MV4-11 cells xenografted in nude mouse assessed as tumor growth inhibition at 25 mg/kg, po qd administered on day 8 to 12 measured during compound dosing. In kind it is functional, organism-based.
Data set [18] concerns Receptor-type tyrosine-protein kinase FLT3 (Homo sapiens), P36888 [UNDEFINED MUTATION]. The following applies: MV4-11.
Description: Inhibition of FLT3 ITD homozygous mutant in human MV4-11 cells assessed as cell growth inhibition after 72 hrs by MTS assay
In data set [19] the target is Receptor-type tyrosine-protein kinase FLT3 (Homo sapiens) (UniProt P36888). The data set is described as follows: Inhibition of human FLT3 at 0.1 uM relative to control.
In data set [20] the test system is Mus musculus. The data set is described as follows: Toxicity in nude mouse allografted with mouse 32D cells expressing FLT3 ITD D835Y mutant at 10 mg/kg/day, po administered 5 days on/2 days off schedule for 4 weeks measured daily during compound dosing. Type of data set: organism-based. The following applies: in vivo.
Data set [21] has as its target T1, Receptor-type tyrosine-protein kinase FLT3 (Homo sapiens, UniProt P36888).
T1 sequence (P36888 whole entry): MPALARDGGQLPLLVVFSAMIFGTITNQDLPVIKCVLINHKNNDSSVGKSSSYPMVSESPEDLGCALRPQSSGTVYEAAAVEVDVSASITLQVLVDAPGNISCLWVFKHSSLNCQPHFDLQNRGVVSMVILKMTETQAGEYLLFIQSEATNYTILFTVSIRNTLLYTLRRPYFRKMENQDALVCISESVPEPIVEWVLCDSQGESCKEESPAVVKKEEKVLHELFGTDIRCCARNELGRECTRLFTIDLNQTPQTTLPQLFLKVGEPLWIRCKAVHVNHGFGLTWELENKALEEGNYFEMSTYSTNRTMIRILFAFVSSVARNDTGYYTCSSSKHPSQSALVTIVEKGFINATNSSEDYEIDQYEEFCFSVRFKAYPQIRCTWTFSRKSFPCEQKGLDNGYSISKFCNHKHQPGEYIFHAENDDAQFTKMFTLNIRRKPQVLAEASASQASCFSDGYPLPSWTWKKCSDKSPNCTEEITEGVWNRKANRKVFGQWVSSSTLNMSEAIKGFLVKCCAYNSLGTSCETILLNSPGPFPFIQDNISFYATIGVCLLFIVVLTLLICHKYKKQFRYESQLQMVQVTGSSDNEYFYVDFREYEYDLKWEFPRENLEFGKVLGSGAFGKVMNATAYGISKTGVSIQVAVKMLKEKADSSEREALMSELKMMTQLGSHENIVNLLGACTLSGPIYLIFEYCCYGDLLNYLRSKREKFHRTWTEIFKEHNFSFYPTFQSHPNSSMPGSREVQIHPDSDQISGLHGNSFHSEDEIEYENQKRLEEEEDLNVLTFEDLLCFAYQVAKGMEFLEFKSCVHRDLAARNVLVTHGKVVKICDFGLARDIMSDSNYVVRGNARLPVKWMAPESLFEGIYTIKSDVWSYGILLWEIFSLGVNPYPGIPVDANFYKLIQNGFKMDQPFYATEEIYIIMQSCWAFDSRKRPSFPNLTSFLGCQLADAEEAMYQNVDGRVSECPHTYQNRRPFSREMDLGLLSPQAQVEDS
Kind of data set: biochemical. In kind it is cell-based, Sf9.
Description: Inhibition of wild type GST-tagged FLT3 kinase domain (Y567 to S993) (unknown origin) expressed in baculovirus infected insect Sf9 cells using Her2 peptide as substrate after 4 hrs by Kinase-Glo assay

In data set [22] the test system is Tyrosine-protein kinase ABL1 (Homo sapiens), P00519 [T315I]. The data set is described as follows: Inhibition of human ABL1 T315I mutant at 0.1 uM relative to control.
The subject of data set [23] is Receptor-type tyrosine-protein kinase FLT3 (Homo sapiens), P36888 [D835Y]. Kind of data set: Inhibition of human FLT3 D835Y mutant at 0.1 uM relative to control.
Data set [24] has as its target T1, Receptor-type tyrosine-protein kinase FLT3. Kind of data set: Inhibition of wild type FLT3 (unknown origin) phosphorylation expressed in HEK293T cells preincubated for 1 hr followed by FLT3 ligand addition for 5 mins by Western blot analysis. In kind it is cell-based, HEK-293T. On the technique in general: Immunoblotting shows a protein as a band on a membrane.

Tyrosine-protein kinase Blk (Homo sapiens), sequence (P51451 2-505 limits assumed): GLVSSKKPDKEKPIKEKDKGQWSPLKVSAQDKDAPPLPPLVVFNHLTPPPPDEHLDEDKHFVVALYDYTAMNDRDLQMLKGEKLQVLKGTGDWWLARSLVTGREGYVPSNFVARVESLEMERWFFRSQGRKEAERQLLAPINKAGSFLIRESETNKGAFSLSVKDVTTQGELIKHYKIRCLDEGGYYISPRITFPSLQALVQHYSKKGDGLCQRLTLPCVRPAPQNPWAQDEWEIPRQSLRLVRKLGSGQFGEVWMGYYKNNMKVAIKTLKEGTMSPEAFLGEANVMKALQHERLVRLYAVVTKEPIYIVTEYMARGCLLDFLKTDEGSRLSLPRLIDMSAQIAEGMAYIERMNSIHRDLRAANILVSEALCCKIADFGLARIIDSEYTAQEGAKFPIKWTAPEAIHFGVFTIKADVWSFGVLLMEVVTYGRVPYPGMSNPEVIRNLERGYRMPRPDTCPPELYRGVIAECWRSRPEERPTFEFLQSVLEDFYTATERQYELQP
Tyrosine-protein kinase Fyn (Homo sapiens), sequence (P06241 2-537 limits assumed): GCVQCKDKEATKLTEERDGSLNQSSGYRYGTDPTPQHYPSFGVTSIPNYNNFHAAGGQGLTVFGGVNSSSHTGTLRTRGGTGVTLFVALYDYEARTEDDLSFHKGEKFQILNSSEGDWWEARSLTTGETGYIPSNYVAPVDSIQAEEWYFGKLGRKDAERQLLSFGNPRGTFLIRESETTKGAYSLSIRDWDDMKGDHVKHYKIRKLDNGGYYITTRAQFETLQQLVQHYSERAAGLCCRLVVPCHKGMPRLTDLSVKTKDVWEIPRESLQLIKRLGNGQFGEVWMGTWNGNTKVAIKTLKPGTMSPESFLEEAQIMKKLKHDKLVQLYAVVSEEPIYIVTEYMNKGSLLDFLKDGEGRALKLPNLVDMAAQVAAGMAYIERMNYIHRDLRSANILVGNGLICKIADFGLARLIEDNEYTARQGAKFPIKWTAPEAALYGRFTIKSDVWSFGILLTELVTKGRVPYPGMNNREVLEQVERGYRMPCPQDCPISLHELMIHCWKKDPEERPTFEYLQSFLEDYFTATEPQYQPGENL
Tyrosine-protein kinase HCK (Homo sapiens), sequence (P08631 2-526 limits assumed): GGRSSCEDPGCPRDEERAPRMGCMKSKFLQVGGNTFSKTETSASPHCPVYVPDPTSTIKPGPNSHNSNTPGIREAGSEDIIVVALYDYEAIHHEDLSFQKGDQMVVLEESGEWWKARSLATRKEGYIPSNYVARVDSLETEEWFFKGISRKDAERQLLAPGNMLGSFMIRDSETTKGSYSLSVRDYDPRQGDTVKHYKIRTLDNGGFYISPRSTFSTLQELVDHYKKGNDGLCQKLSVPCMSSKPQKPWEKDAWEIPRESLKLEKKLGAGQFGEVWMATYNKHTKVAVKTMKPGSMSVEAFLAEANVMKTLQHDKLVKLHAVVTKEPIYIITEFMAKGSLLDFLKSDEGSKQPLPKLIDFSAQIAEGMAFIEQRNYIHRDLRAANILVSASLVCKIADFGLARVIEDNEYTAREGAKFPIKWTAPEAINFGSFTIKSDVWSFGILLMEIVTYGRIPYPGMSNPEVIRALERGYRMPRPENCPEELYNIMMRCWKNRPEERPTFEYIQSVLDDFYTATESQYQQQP
Platelet-derived growth factor receptor beta (Homo sapiens), sequence (P09619 whole entry): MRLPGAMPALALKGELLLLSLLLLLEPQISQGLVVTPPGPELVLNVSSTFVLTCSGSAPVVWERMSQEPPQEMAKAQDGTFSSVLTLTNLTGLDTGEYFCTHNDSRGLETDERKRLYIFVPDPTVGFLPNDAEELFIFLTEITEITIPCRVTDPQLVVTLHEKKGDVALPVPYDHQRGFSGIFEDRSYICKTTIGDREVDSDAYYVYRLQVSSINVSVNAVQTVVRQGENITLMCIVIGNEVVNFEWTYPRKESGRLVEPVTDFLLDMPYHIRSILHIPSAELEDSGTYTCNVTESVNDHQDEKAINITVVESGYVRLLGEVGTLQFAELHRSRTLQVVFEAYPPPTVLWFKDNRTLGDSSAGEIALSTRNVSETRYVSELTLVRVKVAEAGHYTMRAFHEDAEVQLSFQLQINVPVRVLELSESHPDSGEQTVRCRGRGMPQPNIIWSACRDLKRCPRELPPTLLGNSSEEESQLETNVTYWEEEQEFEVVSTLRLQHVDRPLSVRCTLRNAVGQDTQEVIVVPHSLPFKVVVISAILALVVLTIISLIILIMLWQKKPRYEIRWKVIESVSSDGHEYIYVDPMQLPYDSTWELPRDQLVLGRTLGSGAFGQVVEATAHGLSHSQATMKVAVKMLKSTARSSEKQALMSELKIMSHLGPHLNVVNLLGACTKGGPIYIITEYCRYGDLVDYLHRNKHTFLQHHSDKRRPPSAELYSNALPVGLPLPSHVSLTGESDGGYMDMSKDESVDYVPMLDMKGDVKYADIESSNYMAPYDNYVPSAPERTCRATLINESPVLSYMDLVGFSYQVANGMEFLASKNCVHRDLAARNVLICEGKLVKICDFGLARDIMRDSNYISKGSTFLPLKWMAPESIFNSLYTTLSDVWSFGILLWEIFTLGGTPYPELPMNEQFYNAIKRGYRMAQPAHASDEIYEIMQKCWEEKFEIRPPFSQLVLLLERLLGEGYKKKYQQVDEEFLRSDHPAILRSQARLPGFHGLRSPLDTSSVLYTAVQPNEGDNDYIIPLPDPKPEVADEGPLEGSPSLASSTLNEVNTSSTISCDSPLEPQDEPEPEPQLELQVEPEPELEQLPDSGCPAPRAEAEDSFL
Mitogen-activated protein kinase 8 (Homo sapiens), sequence (P45983 whole entry): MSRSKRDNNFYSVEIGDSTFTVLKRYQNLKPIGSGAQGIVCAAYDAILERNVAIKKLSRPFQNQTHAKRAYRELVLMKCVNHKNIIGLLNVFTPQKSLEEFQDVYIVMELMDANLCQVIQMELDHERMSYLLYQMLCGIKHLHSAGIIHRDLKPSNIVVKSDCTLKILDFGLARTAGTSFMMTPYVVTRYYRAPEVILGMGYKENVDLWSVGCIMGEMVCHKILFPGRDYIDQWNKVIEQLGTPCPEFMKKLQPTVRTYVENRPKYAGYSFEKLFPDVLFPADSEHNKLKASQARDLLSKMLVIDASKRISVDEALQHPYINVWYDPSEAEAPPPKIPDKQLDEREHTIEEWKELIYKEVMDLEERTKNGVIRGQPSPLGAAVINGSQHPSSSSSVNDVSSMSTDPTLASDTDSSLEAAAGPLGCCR
Tyrosine-protein kinase Fgr (Homo sapiens), sequence (P09769 2-529 limits assumed): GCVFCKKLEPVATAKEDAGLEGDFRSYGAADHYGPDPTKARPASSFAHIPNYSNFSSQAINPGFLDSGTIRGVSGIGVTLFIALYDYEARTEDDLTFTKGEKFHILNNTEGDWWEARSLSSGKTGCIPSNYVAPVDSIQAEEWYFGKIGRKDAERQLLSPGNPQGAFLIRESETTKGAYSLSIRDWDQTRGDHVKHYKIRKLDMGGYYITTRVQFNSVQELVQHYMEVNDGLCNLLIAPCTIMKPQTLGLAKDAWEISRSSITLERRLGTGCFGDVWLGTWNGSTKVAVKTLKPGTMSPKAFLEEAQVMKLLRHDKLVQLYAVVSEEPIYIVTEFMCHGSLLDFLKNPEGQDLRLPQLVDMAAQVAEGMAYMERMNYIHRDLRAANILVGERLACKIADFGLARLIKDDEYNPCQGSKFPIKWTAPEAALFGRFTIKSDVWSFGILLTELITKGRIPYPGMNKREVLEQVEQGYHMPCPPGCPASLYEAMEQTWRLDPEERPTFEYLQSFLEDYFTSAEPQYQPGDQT

With `CCc1cc(NC(=O)Nc2ccc(-c3cnc(Nc4cc(N5CCN(CC)CC5)nc(C)n4)s3)cc2)no1`, the inhibition turned out to be 89% in data set [1]; 78% in [2]; 86% in data set [3]; 0% in data set [4]; 46% in [6]; 98% in data set [7]. Also, the inhibition in data set [8] amounted to 15%; in data set [9] it was 45%; in data set [10] it was 7%; in data set [12], 91%; in data set [14], 45%; in [15], 61%. Also, the figures for the inhibition in data set [19], in data set [22] and in data set [23] were 98%, 51% and 87%, respectively. For the same molecule, the Activity in the data set on Mus musculus [5] is recorded as 90%; in the data set with Mus musculus [20] it was “Non-toxic”. Besides, the TGI entry with MV4-11 [11] and with MV4-11 [17] was “Active” throughout. The outcome with MV4-11 [13] was Active. The AUC(0-inf) in data set [16] was found to be 1080 ng·h/mL. Moreover, the GI50 in [18] came out at 1 nM. Moreover, the IC50 in data set [21] is 38 nM; in data set [24] it was 10 nM.

Usually inhibition stands for the drop in the measured response relative to a control, in per cent. A high value points to a strong effect. In general, AUC(0-inf) refers to total exposure, with the tail of the curve extrapolated. A word on the GI50: it is the concentration at which growth is held to half of that of the control. Low values mean more potent growth inhibition, high ones less potent growth inhibition. One may read the IC50 as the midpoint of a concentration-inhibition curve. Read a high IC50 as weaker potency in that assay.

These data come from ChEMBL document CHEMBL3593229, “Identification of a potent 5-phenyl-thiazol-2-ylamine-based inhibitor of FLT3 with activity against drug resistance-conferring point mutations” (Eur J Med Chem, 2015).
